From ChEMBL document CHEMBL1667821, “Synthesis and galectin-binding activities of mercaptododecyl glycosides containing a terminal β-galactosyl group” (Bioorg Med Chem Lett, 2011)
Where “and” joins values, the source holds several entries; their conditions need not be identical. Identical values can stand only once. Calls of active or inactive are those of the source. The calls are words filed in the database; no cut-off is given here.

How the values were obtained:
[1] = biological target: T1, Galectin-8 (Homo sapiens) (UniProt O00214); assay: Binding affinity to human galectin-8 by surface plasmon resonance method
T1 sequence (whole entry): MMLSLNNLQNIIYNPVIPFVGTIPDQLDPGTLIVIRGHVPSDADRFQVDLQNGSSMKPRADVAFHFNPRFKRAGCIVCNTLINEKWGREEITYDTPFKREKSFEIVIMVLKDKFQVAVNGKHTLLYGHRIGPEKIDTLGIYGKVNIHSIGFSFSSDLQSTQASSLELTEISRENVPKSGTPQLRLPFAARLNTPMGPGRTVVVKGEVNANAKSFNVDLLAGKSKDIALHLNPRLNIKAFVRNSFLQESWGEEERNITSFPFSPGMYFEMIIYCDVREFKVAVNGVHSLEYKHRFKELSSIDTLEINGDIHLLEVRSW

[2] = biological target: T2, Galectin-2 (Homo sapiens) (UniProt P05162); assay: Binding affinity to human galectin-2 by surface plasmon resonance method
T2 sequence (whole entry): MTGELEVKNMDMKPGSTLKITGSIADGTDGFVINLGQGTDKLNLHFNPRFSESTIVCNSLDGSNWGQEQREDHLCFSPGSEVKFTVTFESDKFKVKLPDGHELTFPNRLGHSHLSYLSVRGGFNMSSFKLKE

[3] = biological target: Galectin-7 (Homo sapiens) (UniProt P47929); assay: Binding affinity to human galectin-7 by surface plasmon resonance method
Galectin-3 = Galectin-3 (Homo sapiens, UniProt P17931); assay: Binding affinity to human galectin-3 by surface plasmon resonance method
[4] = biological target: Galectin-1 (Homo sapiens) (UniProt P09382); assay: Binding affinity to human galectin-1 by surface plasmon resonance method
[5] = biological target: T3, Galectin-4 (Homo sapiens) (UniProt P56470); assay: Binding affinity to human galectin-4 by surface plasmon resonance method
T3 sequence (whole entry): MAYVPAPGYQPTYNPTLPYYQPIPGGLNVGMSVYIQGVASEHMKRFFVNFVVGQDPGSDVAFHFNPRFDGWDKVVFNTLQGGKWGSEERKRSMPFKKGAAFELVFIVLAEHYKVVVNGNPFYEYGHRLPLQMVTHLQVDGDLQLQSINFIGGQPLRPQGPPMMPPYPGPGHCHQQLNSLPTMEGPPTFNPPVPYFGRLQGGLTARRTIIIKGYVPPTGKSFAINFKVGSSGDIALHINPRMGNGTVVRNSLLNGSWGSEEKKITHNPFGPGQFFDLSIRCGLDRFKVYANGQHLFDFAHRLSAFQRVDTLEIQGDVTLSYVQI

Galectin-4 [6] = biological target: T4, Galectin-4 (Homo sapiens, UniProt P56470); assay: (§1) Binding affinity to human galectin-4 component 1 by surface plasmon resonance method
T4 sequence (P56470 whole entry): T3 sequence (whole entry)

[7] = biological target: T3, Galectin-4 (Homo sapiens); assay: as §1
Galectin-4 [8] = biological target: T4, Galectin-4; assay: (§2) Binding affinity to human galectin-4 component 2 by surface plasmon resonance method
[9] = biological target: T3, Galectin-4 (Homo sapiens); assay: as §2
[10] = biological target: T1, Galectin-8 (Homo sapiens); assay: (§3) Binding affinity to human galectin-8 component 1 by surface plasmon resonance method
Galectin-8 [11] = biological target: T5, Galectin-8 (Homo sapiens, UniProt O00214); assay: as §3
T5 sequence (O00214 whole entry): T1 sequence (whole entry)

[12] = biological target: T1, Galectin-8 (Homo sapiens); assay: (§4) Binding affinity to human galectin-8 component 2 by surface plasmon resonance method
Galectin-8 [13] = biological target: T5, Galectin-8; assay: as §4

Chain of Galectin-7 (Homo sapiens) (P47929 whole entry): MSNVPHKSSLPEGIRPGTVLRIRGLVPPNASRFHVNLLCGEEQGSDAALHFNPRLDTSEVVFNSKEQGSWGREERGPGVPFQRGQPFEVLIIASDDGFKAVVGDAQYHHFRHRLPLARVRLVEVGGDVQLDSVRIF
Chain of Galectin-3 (P17931 whole entry): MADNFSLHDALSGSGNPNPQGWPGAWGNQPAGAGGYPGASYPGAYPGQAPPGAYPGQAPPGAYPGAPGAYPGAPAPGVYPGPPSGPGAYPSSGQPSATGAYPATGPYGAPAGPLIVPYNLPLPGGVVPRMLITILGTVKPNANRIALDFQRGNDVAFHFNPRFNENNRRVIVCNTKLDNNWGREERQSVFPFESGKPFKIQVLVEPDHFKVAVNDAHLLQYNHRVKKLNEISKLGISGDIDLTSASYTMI
Chain of Galectin-1 (Homo sapiens) (P09382 whole entry): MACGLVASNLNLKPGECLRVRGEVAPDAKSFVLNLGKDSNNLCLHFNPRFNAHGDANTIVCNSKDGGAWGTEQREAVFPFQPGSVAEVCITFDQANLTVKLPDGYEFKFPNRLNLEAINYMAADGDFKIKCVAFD

Row | SMILES | Activity [1] | Activity [2] | Activity [3] | Activity (Galectin-3) | Activity [4] [a.u.] | Activity [5] | Kd (Galectin-4 [6]) | Ka [7] [M⁻¹ s⁻¹] | Kdiss [7] [×10⁻³ /s] | Kd (Galectin-4 [8]) | Ka [9] [M⁻¹ s⁻¹] | Kdiss [9] | Ka [10] [M⁻¹ s⁻¹] | Kdiss [10] | Kd (Galectin-8 [11]) | Ka (Galectin-3) [M⁻¹ s⁻¹] | Kd (Galectin-3) [nM] | Kdiss (Galectin-3) | Ka [12] [M⁻¹ s⁻¹] | Kdiss [12] | further results
1 | OC[C@H]1O[C@@H](O[C@H]2C=C[C@@H](OCCCCCCCCCCCCS)O[C@@H]2CO)[C@H](O)[C@@H](O)[C@H]1O | Active | 13.4 a.u. | inactive | 5.1 a.u. | 25.1 | Active |  |  |  |  |  |  |  |  |  |  |  |  |  |  | 
2 | OC[C@H]1O[C@@H](O[C@H]2[C@H](O)C[C@@H](OCCCCCCCCCCCCS)O[C@@H]2CO)[C@H](O)[C@@H](O)[C@H]1O | 74.5 a.u. | 11 a.u. | inactive | 135 a.u. | 17.8 | 345 a.u. | 300 nM and 304 nM | 4630 | 1.41 | 58 nM | 65200 | 3.78 ×10⁻³ /s | 18600 | 6.85 ×10⁻² /s | 37 nM and 36.9 nM | 1900 | 1430 | 2.72 ×10⁻³ /s | 35500 | 1.11 ×10⁻¹ /s | Kd (Galectin-8 [13]): 31 nM and 31.3 nM
3 | OC[C@H]1OC(O[C@H]2[C@H](O)[C@@H](O)[C@H](OCCCCCCCCCCCCS)O[C@@H]2CO)[C@H](O)[C@@H](O)[C@H]1O (some centres undefined) | 368 a.u. | 2 a.u. | 4.2 a.u. | 82.3 a.u. | 9.5 | 457 a.u. | 140 nM and 136 nM | 13000 | 1.76 | 85 nM and 84.7 nM | 172000 | 1.45 ×10⁻² /s | 8970 | 1.39 ×10⁻⁵ /s | 1.6 nM and 1.55 nM | 1760 | 1060 | 1.86 ×10⁻³ /s | 9.61e+06 | 2.37 ×10⁻¹ /s | Kd (Galectin-8 [13]): 25 nM and 24.6 nM
4 | CC(=O)N[C@H]1[C@@H](OCCCCCCCCCCCCS)O[C@H](CO)[C@@H](O[C@@H]2O[C@H](CO)[C@H](O)[C@H](O)[C@H]2O)[C@@H]1O | 163 a.u. | inactive | 0.8 a.u. | 167 a.u. | 4.1 | 462 a.u. | 1260 nM | 2330 | 2.92 | 780 nM and 777 nM | 111000 | 8.6 ×10⁻² /s | 9370 | 2.18 ×10⁻⁶ /s | 0.23 nM and 0.233 nM | 5670 | 2200 | 1.25 ×10⁻² /s | 48700 | 2.39 ×10⁻³ /s | 
5 | OC[C@H]1O[C@@H](OCCCCCCCCCCCCS)[C@H](O)[C@@H](O)[C@H]1O | 34.1 a.u. | 3.8 a.u. | inactive | inactive | 3.4 | Active |  |  |  |  |  |  |  |  |  |  |  |  |  |  | 
